Test results reported in ChEMBL document CHEMBL1149747, “Diterpene metabolites from two chemotypes of the marine sponge Myrmekioderma styx” (J Nat Prod, 1992).
Values after ≈ are worked out from the molar mass of the structure shown.

Experiments:
P388 = test: Cytotoxicity against mouse P388 cells; format: functional, cell-based
A549 = test: Cytotoxicity against human A549 cells; format: functional, cell-based

For `CC(=O)O[C@@H]1C[C@]2(C)C[C@@H]3O[C@]3(C)CCC2[C@@H]2C(C(C)C)=CC[C@]12C` (stereo partly specified), the IC50 (P388) was 5.6 µg/mL (≈ 16.2 µM) and the IC50 (A549) was 7 µg/mL (≈ 20.2 µM).
`CC1=CC[C@@]2(C)CC[C@@]3(C)[C@H](O)C=C(C(C)C)[C@H]3C2CC1` (stereo partly specified) showed an IC50 (P388) of 11.2 µg/mL (≈ 38.8 µM) and an IC50 (A549) of 4 µg/mL (≈ 13.9 µM).
Work on `C=CC(C)(O)/C=C/C=C(\C)CC/C=C(\C)CC(=O)C=C(C)C` (stereo unspecified) [STYXENOL A] yielded an IC50 (P388) of 5 µg/mL (≈ 16.5 µM) and an IC50 (A549) of 6.1 µg/mL (≈ 20.2 µM).
